pEC50, pKi: −log10 of the molar value.
How the values were obtained:
EP2 [1] = molecular target: T1, EP2 (Homo sapiens, UniProt P43116); test: EP2 cAMP functional assay; type: cell-based
From the text: (§1) U.S. patent application Ser. No. 11/553,143, filed on Oct. 26, 2006, incorporated by reference herein, describes the methods used to obtain the in vitro data in the table below.

EP2 [2] = molecular target: T1, EP2; test: EP2 binding (Ki)
From the text: as §1

T1 sequence (P43116 whole entry): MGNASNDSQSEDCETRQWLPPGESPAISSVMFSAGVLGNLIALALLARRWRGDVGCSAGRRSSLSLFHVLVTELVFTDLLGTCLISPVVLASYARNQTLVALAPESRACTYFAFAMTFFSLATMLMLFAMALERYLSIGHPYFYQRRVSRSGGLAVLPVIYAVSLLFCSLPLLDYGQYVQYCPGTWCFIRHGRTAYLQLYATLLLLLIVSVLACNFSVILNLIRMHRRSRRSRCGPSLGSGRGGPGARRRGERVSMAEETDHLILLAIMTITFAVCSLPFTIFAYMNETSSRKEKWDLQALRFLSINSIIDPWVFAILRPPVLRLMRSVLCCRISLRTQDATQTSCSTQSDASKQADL

Row | SMILES | pEC50 (EP2 [1]) | pKi (EP2 [2])
1 | CCCCCC(O)c1ccc(N2C(=O)C(C)C[C@@H]2COCc2ccc(C(=O)O)s2)cc1 (single isomer, unassigned) [Example 1] | 6.63 | –
2 | CCCCCC(O)c1ccc(N2C(=O)C(C)C[C@@H]2COCc2ccc(C(=O)O)s2)cc1 (single isomer, unassigned) [Example 2] | – | < 5.00

— patent publication US20150274658A1, “THERAPEUTIC LACTAMS” (Allergan, Inc., priority 2014, published 2015)
